Literature values as cited in patent US6436949B1, “Heterocyclically substituted benzamides and their use” (Abbott Laboratories, priority 1996, dated 2002).

Columns and labels:
calpain [1] = settings: activated platelets; J. Biol. Chem., 1993, Vol 268, 12603-12608
calpain [2] = settings: J.Med.Chem. 1990,33, 11-13

Q: For `CCCC[C@@H](C=O)NC(=O)[C@H](CC(C)C)NC(=O)OCc1ccccc1` [calpeptin], which “cleavage of pp60src” value (calpain [1]) is on record?
A: can be prevented

Q: With Ph—CONH—CH(CH2Ph)—CO—COCOOCH3 as the molecule, how does the inhibition of calpain (calpain [2]) read?
A: weak inhibitor of calpain
